From ChEMBL document CHEMBL5108052, “Histone Deacetylase and Enhancer of Zeste Homologue 2 Dual Inhibitors Presenting a Synergistic Effect for the Treatment of Hematological Malignancies” (J Med Chem, 2022)

What was measured:
MV4-11 [1] = experiment: Induction of mitochondrial membrane potential in human MV4-11 cells assessed as reduction in red fluorescence intensity at 0.4 uM measured after 48 hrs by JC1 staining-based flow cytometry analysis (reference value: 98.8%); assay type: functional; design: scale not given: the % may be the effect or the level left
MV4-11 [2] = experiment: Induction of apoptosis in human MV4-11 cells assessed as viable cells at 0.4 uM measured after 48 hrs by Annexin V/7-AAD-dual staining based flow cytometric analysis (reference value: 96.4 %); assay type: functional; conditions: read-out: Activity
Histone deacetylase 7 = target: T1, Histone deacetylase 7 (Homo sapiens, UniProt Q8WUI4); experiment: Inhibition of N-terminal GST-fusion tagged recombinant human HDAC7 (518 to 991 residues) expressed in insect cells using trifluoroacetyl lysine as substrate incubated for 2 hrs by Multimode microplate reader analysis
T1 sequence (Q8WUI4 whole entry): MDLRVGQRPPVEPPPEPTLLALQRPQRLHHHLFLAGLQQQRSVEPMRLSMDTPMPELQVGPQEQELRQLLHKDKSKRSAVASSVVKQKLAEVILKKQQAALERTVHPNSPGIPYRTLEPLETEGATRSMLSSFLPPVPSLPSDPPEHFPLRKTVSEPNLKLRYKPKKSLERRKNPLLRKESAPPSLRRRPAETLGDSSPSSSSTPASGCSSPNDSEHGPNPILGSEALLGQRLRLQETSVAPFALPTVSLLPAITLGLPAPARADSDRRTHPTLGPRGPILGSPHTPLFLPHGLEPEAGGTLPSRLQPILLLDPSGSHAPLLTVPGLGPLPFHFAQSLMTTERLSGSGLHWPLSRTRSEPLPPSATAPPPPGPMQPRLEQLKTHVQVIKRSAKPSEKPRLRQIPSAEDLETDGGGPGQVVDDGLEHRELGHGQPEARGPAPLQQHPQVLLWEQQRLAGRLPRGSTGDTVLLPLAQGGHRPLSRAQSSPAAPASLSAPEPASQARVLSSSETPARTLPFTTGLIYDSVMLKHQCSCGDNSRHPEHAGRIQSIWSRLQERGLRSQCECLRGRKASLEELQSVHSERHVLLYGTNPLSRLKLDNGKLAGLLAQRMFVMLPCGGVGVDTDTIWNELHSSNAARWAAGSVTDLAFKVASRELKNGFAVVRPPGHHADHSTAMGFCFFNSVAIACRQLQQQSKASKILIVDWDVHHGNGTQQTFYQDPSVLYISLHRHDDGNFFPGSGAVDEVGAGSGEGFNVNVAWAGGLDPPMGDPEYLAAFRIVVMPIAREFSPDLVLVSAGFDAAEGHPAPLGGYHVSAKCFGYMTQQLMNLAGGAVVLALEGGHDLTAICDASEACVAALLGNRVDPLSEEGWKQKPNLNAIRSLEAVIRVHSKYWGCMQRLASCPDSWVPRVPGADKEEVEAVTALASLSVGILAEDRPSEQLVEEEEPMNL

Histone deacetylase 9 = Histone deacetylase 9 (Homo sapiens, UniProt Q9UKV0); experiment: Inhibition of HDAC9 (unknown origin) incubated for 2 hrs by Multimode microplate reader analysis
Chain of Histone deacetylase 9 (Q9UKV0 whole entry): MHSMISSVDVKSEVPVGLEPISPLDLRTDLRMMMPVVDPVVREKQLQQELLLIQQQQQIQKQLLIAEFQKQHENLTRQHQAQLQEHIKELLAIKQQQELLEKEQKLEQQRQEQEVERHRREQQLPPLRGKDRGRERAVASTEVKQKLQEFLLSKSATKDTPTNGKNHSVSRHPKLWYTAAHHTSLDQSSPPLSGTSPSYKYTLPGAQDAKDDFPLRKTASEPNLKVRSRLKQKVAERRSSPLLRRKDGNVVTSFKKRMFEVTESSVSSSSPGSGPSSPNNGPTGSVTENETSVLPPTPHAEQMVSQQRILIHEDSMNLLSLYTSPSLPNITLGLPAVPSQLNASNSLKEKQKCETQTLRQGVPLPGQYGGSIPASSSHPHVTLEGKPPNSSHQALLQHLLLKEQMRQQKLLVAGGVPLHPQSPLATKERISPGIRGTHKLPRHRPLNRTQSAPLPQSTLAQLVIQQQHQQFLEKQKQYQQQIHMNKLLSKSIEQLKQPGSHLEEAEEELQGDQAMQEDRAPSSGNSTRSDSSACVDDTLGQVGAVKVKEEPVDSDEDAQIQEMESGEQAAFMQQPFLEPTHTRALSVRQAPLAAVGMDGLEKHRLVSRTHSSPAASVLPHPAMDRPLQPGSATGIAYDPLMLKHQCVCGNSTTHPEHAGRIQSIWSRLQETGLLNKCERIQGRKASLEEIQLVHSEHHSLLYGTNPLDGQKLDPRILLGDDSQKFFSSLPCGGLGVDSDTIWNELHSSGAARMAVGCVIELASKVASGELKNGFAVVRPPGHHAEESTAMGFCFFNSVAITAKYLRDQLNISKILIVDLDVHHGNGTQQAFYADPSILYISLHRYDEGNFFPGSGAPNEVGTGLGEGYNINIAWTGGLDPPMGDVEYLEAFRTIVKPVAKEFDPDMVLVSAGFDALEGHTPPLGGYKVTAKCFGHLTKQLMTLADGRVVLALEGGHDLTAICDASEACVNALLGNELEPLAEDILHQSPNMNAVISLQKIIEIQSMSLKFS

MV4-11 [3] = experiment: Induction of apoptosis in human MV4-11 cells assessed as early apoptotic cells at 0.2 uM measured after 48 hrs by Annexin V/7-AAD-dual staining based flow cytometric analysis (reference value: 2.2 %); assay type: functional
L02 = experiment: Cytotoxicity against human L02 cells assessed as increase in combination index measured after 72 hrs by CCK-8 assay; assay type: toxicity, cell-based; conditions: l02, 72 h

SMILES: Cc1cc(C)c(CNC(=O)c2cc(-c3ccc(N4CCN(c5ncc(C(=O)NO)cn5)CC4)nc3)cc3c2cnn3C(C)C)c(=O)[nH]1
- Activity (MV4-11 [1]): 72%
- viability at 0.4 µM (MV4-11 [2]): 53.8%
- IC50 (Histone deacetylase 7): 8.19 µM
- IC50 (Histone deacetylase 9): 7.05 µM
- Activity (MV4-11 [3]): 10.3%
- Activity (L02): Toxic
